The record followed here is ChEMBL document CHEMBL3507680, “University of Dundee, Gates Library screen for HepG2 cell viability”.

This series in a line: Human HepG2 cell viability assay in 384 well format. It counts as toxicity, cell-based. Further details: dose 125 nL, time 70.5 hour; cytotoxicity at 70.5 h: concentration not given beside the values. The following applies: HepG2 cells, read-out: Inhibition.
Turning to `COc1cccc2sc(N(C)CC(=O)NCc3nc(C)no3)nc12`, the cytotoxicity at 70.5 h is -3.58%.

For `CC(C)(C)C(=O)NCc1cnn2ccccc12`, the cytotoxicity at 70.5 h is -6.45%.

Take `CC(C)(C)NC(=O)NCc1cnn2ccccc12`: the cytotoxicity at 70.5 h is -9.3%.

With `Cc1nccn1-c1ccc(=O)n(CCNC(=O)Cc2ccccc2)n1`, the cytotoxicity at 70.5 h is -12.3%.

Turning to `Cc1ccc(S(=O)(=O)Nc2ccc(-n3nnn(C)c3=O)cc2)cc1`, the cytotoxicity at 70.5 h was 1.6%. The figure for `Cn1nnn(-c2ccc(NS(=O)(=O)c3ccc(F)c(Cl)c3)cc2)c1=O` is -2.9%.

Take `O=C(c1nnn(-c2ccccc2)n1)N(CCO)CCO`: the cytotoxicity at 70.5 h was -5.32%. Under `Cc1ccc(-n2nnc(C(=O)NCC3CCCCC3)n2)cc1` stands -7.05%; under `COCC(C)NC(=O)c1nnn(-c2ccc(OC)cc2)n1` (stereo unspecified), -9.57%; under `O=C(c1nnn(-c2ccc(F)cc2)n1)N1CCC(O)CC1`, 2.17%. Under `COCC(C)NC(=O)c1nnn(-c2ccc(F)cc2)n1` (stereo unspecified) stands -5.45%; under `O=C(c1nnn(-c2ccc(Cl)cc2)n1)N(CCO)Cc1ccccc1`, -1.6%; under `O=C(NC1(c2nc(C3CC3)no2)CCCCC1)c1ccncc1`, 5.56%. The figure for `COCCNC(=O)NC1(c2nc(-c3ccncc3)no2)CCCCC1` is 5.97%; for `O=C(Cn1cccn1)N1CCC(c2nnc(C(F)(F)F)o2)CC1` it is 30.9%; for `CC(=O)N1CCC(c2nn(C)c(=O)n2-c2ccccc2)CC1` it is -1.32%. `Cn1c(C(F)(F)F)nn(CCNC(=O)CCc2ccccc2)c1=O`: the cytotoxicity at 70.5 h is 22.1%. The figure for `Cn1c(C(F)(F)F)nn(CCNC(=O)c2nc3ccccc3s2)c1=O` is -8.57%; for `CCS(=O)(=O)N1CCC(c2nnc(C(F)(F)F)o2)CC1` it is 5.3%; for `CNC(=O)CN1CCC(c2nn(C)c(=O)n2-c2ccccc2)CC1` it is -4.2%. On to `O=C1COc2ccc(Cl)cc2CN1CC1CC1`, for which the cytotoxicity at 70.5 h is -12%. Under `O=C1COc2ccc(Br)cc2CN1CC1CC1` stands -16.7%; under `O=C(c1nnn(-c2ccccc2Cl)c1-c1ccccn1)N1CCSCC1`, -2.09%.

For `O=C(Cn1ccc2ccccc21)Nc1cc(N2CCOCC2)ncn1`, the cytotoxicity at 70.5 h was 14.8%. For the molecule `O=C(Cc1c(F)cccc1Cl)Nc1cc(N2CCOCC2)ncn1`, the cytotoxicity at 70.5 h came to 9.04%. The figure for `Cc1nc(C)c(C(=O)Nc2cc(N3CCC(C)CC3)ncn2)s1` is 0.183%; for `COc1ccc(F)cc1S(=O)(=O)NCCn1cnc(C)cc1=O` it is -12.5%. Under `Cn1nc(N2CCCC(C(=O)Nc3nccs3)C2)ccc1=O` (stereo unspecified) stands 18%; under `Cc1cc(C(=O)N(CC(F)(F)F)C2CCOCC2)c(C)o1`, -7.23%; under `O=C(C1=COCCO1)N1CC(Oc2nc3c(Cl)cccc3s2)C1`, 30.4%. Turning to `CCOCC(=O)NCCc1nc(C)cc(C(F)(F)F)n1`, the cytotoxicity at 70.5 h was -10.8%.

For the molecule `O=C(CN1C(=O)CCC1=O)NCCc1nc(C2CC2)cc(C(F)(F)F)n1`, the cytotoxicity at 70.5 h was 31.4%.

For `O=C1CCSCC(C(=O)N2CCCCC2)N1` (stereo unspecified), the cytotoxicity at 70.5 h is -0.797%.

`CS(=O)(=O)N1CCN(C(=O)C2CSCCC(=O)N2)CC1` (stereo unspecified): the cytotoxicity at 70.5 h was found to be 19.7%. Under `Cc1nnc(CNC(=O)C2CSCCC(=O)N2)o1` (stereo unspecified) stands 45.2%; under `CC(NC(=O)C1CN(c2ncnc3c2nnn3C)C1)c1ccccc1` (stereo unspecified), -16.6%. The figure for `O=C(O)CC(CC(=O)NCCc1ccsc1)c1cccs1` (stereo unspecified) is -13.1%; for `O=C(CCn1ccc(=O)[nH]c1=O)N1CCC(Oc2ccccn2)CC1` it is -4.88%; for `Cc1ccc(S(=O)(=O)N2CCC(Oc3ccccn3)CC2)c(C)c1` it is -19.6%. Under `CCOC(=O)CCC(=O)N1CCC(Oc2ncccc2Cl)CC1` stands -4.05%; under `O=C(c1ccccn1)N1CCC(Oc2ncccc2Cl)CC1`, -2.05%. For `COc1ccc(F)cc1S(=O)(=O)N1CCC(Oc2ccc(Cl)cn2)CC1`, the cytotoxicity at 70.5 h was -3.49%. The figure for `COc1ccccc1C(=O)N1CCC(Oc2ccc(C#N)cn2)CC1` is -2.18%; for `N#Cc1ccc(OC2CCN(C(=O)c3ccc(Br)o3)CC2)nc1` it is 20.2%. In the case of `Cc1noc(C)c1S(=O)(=O)N1CCC(Oc2cnccn2)CC1`, the cytotoxicity at 70.5 h was found to be 11.2%.

With `COC(=O)c1sccc1S(=O)(=O)N1CCC(Oc2cnccn2)CC1`, the cytotoxicity at 70.5 h is -7.44%. Under `O=S(=O)(c1ccccc1F)N1CCC(Oc2cccnn2)CC1` stands -7.73%; under `O=C(NCc1ccccc1)N1CCC(Oc2ncccc2Br)CC1`, -7.02%.

In the case of `Cc1nc(OCC(=O)N2CCCC2)cc(-n2cccn2)n1`, the cytotoxicity at 70.5 h was -7.15%.

With `O=C(COc1ccc(-n2cccn2)nn1)N1CCCC1`, the cytotoxicity at 70.5 h was -2.51%. The figure for `COc1ncc(NS(=O)(=O)c2ccc(F)cc2F)cn1` is -3.22%; for `Cc1cccc(C(=O)N2CCN(c3ccc(-n4cccc4)nn3)CC2)c1` it is -7.5%.

Turning to `O=S(=O)(NCCNc1ccc(-n2cccc2)nn1)c1ccccc1`, the cytotoxicity at 70.5 h was -5.01%. Under `O=S(=O)(Cc1ccccc1)NCCNc1ccc(-n2cccc2)nn1` stands -13.6%; under `O=S(=O)(NCCNc1ccc(-n2cccc2)nn1)c1cccs1`, 3.82%. Under `O=C(NCCNc1cc(-n2cccc2)ncn1)c1cccs1` stands -4.09%; under `c1cncc(COCC2CN(Cc3ccco3)Cc3nccn3C2)c1` (stereo unspecified), -9.74%. The figure for `COCC1c2nnn(CC3CC3)c2CCN1C(=O)CS(C)(=O)=O` (stereo unspecified) is -12.6%.

Consider `COCC1c2nnn(CC3CC3)c2CCN1C(=O)C1CCOCC1` (stereo unspecified), for which the cytotoxicity at 70.5 h was -11.4%. As for `COCC1c2nnn(CC3CC3)c2CCN1C(=O)c1cnccn1` (stereo unspecified), the cytotoxicity at 70.5 h was -13%. In the case of `COCC1c2nnn(CC3CC3)c2CCN1C(=O)c1cc(C)[nH]c1C` (stereo unspecified), the cytotoxicity at 70.5 h is -9.95%. The figure for `CS(=O)(=O)N1CCCC12CCCN(C(=O)c1cc(F)cc(F)c1)C2` (stereo unspecified) is -11.7%; for `COCC1c2nnn(CC3CC3)c2CCN1C(=O)c1ccncn1` (stereo unspecified) it is 9.24%. The figure for `Cc1nc(C)n(CC2CN(S(C)(=O)=O)Cc3nccn3C2)n1` (stereo unspecified) is 9.77%; for `CN(C)C(=O)c1cc2c(nc1NCC1CC1)CCNCC2` it is 29.7%.

Consider `Cc1cccc(C(=O)N2CCCn3cnc(CN4CCCC4=O)c3C2)n1`, for which the cytotoxicity at 70.5 h was found to be 30.9%. Under `CCOCC(O)CN1CCN(C(=O)Cc2cccc(Cl)c2)CC1` (stereo unspecified) stands -5.95%; under `Cc1nc2cc(=O)[nH]n2c(C)c1CC(=O)NCc1ccc(C#N)cc1`, -0.462%; under `CNc1cc(N2CCCC2CNCc2csc(C)n2)ncn1` (stereo unspecified), 6.11%. Regarding `Cc1nc(C)n(CC2CCCCN2CCc2ccncc2)n1` (stereo unspecified), the cytotoxicity at 70.5 h amounted to 16.8%. The figure for `CC(C)(C)c1n[nH]c(C2CN(C(=O)CCc3cccs3)CCO2)n1` (stereo unspecified) is -8.77%; for `CCCc1n[nH]c(C2CN(C(=O)CCc3cscn3)CCO2)n1` (stereo unspecified) it is -1.57%; for `Cc1noc(C(C)N2CCN(Cc3nc(C)c(C)o3)CC2)n1` (stereo unspecified) it is -3.69%. The figure for `Cc1cc(C)n(CC2CCCN2CCS(C)(=O)=O)n1` (stereo unspecified) is -9.56%. Under `CCn1ccnc1CN1CCCN(C(=O)c2ccnn2C)CC1` stands -3.84%.

Turning to `CCCN1CCCC1Cn1nc(C)cc1C` (stereo unspecified), the cytotoxicity at 70.5 h is -3.07%. The figure for `CCc1ccc(C(=O)N2CCCC(n3nc(C)nc3C)C2)o1` (stereo unspecified) is 13.2%; for `CC(Cc1ccco1)NC(=O)Nc1cccnc1` (stereo unspecified) it is 2.87%; for `COc1ccccc1OCCNCc1c(C(C)C)nn(C)c1N(C)C` it is 34.1%. For `Cc1nc(C2CCCN2CC(=O)NCCOc2cccc(F)c2)no1` (stereo unspecified), the cytotoxicity at 70.5 h is 19.2%. On to `O=C(c1cccnc1N1CCOCC1)N1CCCC(n2cncn2)C1` (stereo unspecified), for which the cytotoxicity at 70.5 h was found to be 18.2%. The figure for `CCc1nc(CC(=O)N2CCn3c(C)nnc3C2)cs1` is -6.05%; for `COc1cc(CNCCc2cnn(C)c2)cc(OC)c1OC` it is 21.4%; for `CC(C)c1nn(C)c(N(C)C)c1CNCc1cccnc1N(C)C` it is 0.645%. The figure for `Cc1cc(C)c(CNC(=O)NCC2CCCOC2)c(=O)[nH]1` (stereo unspecified) is -11.1%; for `Cc1nc(C)n(CC2CCCN(CC(=O)Nc3nnc(C)s3)C2)n1` (stereo unspecified) it is 17.5%. The figure for `Cc1nc(C)n(CC2CCCN(CC(=O)Nc3cc(C)on3)C2)n1` (stereo unspecified) is -2.38%. Turning to `CC(C)c1nnc2n1CCN(C(=O)Cc1csc(C(C)(C)C)n1)C2`, the cytotoxicity at 70.5 h is -8.69%. Under `CC(=O)c1ccc(OCC(=O)NS(=O)(=O)c2cccnc2)cc1` stands 17.6%; under `Cc1nnc2n1CCN(C(=O)c1cc(Cl)c(Br)[nH]1)C2`, -2.93%. As to `Cc1nc(CC(=O)N2CCn3c(nnc3C(C)C)C2)cs1`, the cytotoxicity at 70.5 h was -2.25%. Under `CC(C)c1ccc(OCC(=O)NS(=O)(=O)c2cccnc2)cc1` stands -0.457%. The figure for `Cc1cc(OCC(=O)NS(=O)(=O)c2cccnc2)ccc1Cl` is -2.82%.

Regarding `CC(C)c1nn(C)c(N(C)C)c1CNCc1ccccc1CO`, the cytotoxicity at 70.5 h worked out at 0.684%. In the case of `CC(C)c1nn(C)c(N(C)C)c1CNCc1cccc2cccnc12`, the cytotoxicity at 70.5 h was 5.24%.

On to `Cc1ccc(CN2CCC3(CC(=O)N(c4cccc(F)c4)C3)C2)o1` (stereo unspecified), for which the cytotoxicity at 70.5 h is -17.4%.

Take `O=C1CC2(CCN(CCO)C2)CN1c1cccc(F)c1` (stereo unspecified): the cytotoxicity at 70.5 h is -10.9%.

Consider `Cc1ncsc1CN1C[C@@H](OCC(=O)N(C)C)[C@H]2OCCC[C@H]21`, for which the cytotoxicity at 70.5 h is -11.1%. Under `O=C1CC2(CCN(Cc3ccncc3)C2)CN1c1cccc(F)c1` (stereo unspecified) stands -12.5%; under `COCCN1CCc2cc(C(=O)O)c(NCC3CC3)nc2CC1`, 22.8%; under `CN(C)CCOCC1CN(Cc2ccsc2)Cc2nnn(C)c21` (stereo unspecified), 30.5%.
